Source: PMC10323144, “Garbage in, garbage out: how reliable training data improved a virtual screening approach against SARS-CoV-2 MPro” (Frontiers in Pharmacology, 2023)
Square brackets hold non-standard residues; d marks the D form. Peptide text beside a SMILES is read from it. * marks the point of attachment. Bn = c1ccc(C*)cc1; Sar = CNCC(=O)O; tBu = CC(C)(C)*

Biological target: SARS-CoV-2 MPro (Severe acute respiratory syndrome coronavirus 2, UniProt P0DTD1)
Assay: MPro activity assay (de-quenching of Edans fluorescence on cleavage of a Dabcyl/Edans peptide)
Type: biochemical
Conditions: 60 min pre-incubation, 5 μM substrate

| Structure (SMILES) | IC50 |
| --- | --- |
| Cc1ccc(S(=O)(=O)Nc2nc3cc(Cl)c(Oc4cccc(Cl)c4Cl)cc3[nH]2)cc1 [Cpd 31] | > 25 µM |

Same assay, conditions: in-house acquired data, internal screening under standardized conditions (128 compounds)

| Structure (SMILES) | Class (MPro activity class) |
| --- | --- |
| CC(=NNC(N)=O)c1cc2ccccc2oc1=O [COV19144] | 0 (compounds with IC50 > 20 μM, percentage inhibition <80% at 20 µM or 50 μM, or percentage enzyme inhibition <50% at 10 µM were labelled as INACTIVE) |
| CC(=NNC(N)=[Se])c1cc2ccccc2oc1=O [COV19145] | 0 (compounds with IC50 > 20 μM, percentage inhibition <80% at 20 µM or 50 μM, or percentage enzyme inhibition <50% at 10 µM were labelled as INACTIVE) |
| CN(CCc1ccc(Cl)cc1)C(=S)c1ccccc1I [COV19183] | 0 (compounds with IC50 > 20 μM, percentage inhibition <80% at 20 µM or 50 μM, or percentage enzyme inhibition <50% at 10 µM were labelled as INACTIVE) |
| CC(C)(C)OC(=O)NC1CCCN(CC(=O)NC(Cc2ccccc2)C(=O)Nc2nc3cc(Sc4ccccc4)ccc3[nH]2)C1=O (stereo not shown) [COV19184] | 0 (compounds with IC50 > 20 μM, percentage inhibition <80% at 20 µM or 50 μM, or percentage enzyme inhibition <50% at 10 µM were labelled as INACTIVE) |
| CCCOC(=O)C(Cc1ccccc1)NC(=O)CN1CCCC(NC(=O)OC(C)(C)C)C1=O (stereo not shown) [COV19185] | 0 (compounds with IC50 > 20 μM, percentage inhibition <80% at 20 µM or 50 μM, or percentage enzyme inhibition <50% at 10 µM were labelled as INACTIVE) |
| CC(=O)OCC1OC(OC(C)=O)C(NC(=O)C(Cc2ccccc2)NC(=O)CN2CCCC(NC(=O)OC(C)(C)C)C2=O)C(OC(C)=O)C1OC(C)=O (stereo not shown) [COV19186] | 1 (Compounds with IC50 < 10 µM or with a percentage of enzyme inhibition >50% at 10 µM were labelled as ACTIVE) |
| C(=Cc1ccco1)C=Nn1cnnc1 [COV19287] | 0 (compounds with IC50 > 20 μM, percentage inhibition <80% at 20 µM or 50 μM, or percentage enzyme inhibition <50% at 10 µM were labelled as INACTIVE) |
| Cc1c(C(=O)Nc2ccccc2)[n+]([O-])c2cc(CN(C)CC=Cc3ccccc3)ccc2[n+]1[O-] [COV19291] | 0 (compounds with IC50 > 20 μM, percentage inhibition <80% at 20 µM or 50 μM, or percentage enzyme inhibition <50% at 10 µM were labelled as INACTIVE) |
| O=S(=O)(C=Cc1ccc2no[n+]([O-])c2c1)c1ccccc1 [COV19497] | 1 (Compounds with IC50 < 10 µM or with a percentage of enzyme inhibition >50% at 10 µM were labelled as ACTIVE) |
| O=S(=O)(C=Cc1ccc2nonc2c1)c1ccccc1 [COV19498] | 0 (compounds with IC50 > 20 μM, percentage inhibition <80% at 20 µM or 50 μM, or percentage enzyme inhibition <50% at 10 µM were labelled as INACTIVE) |
| O=S(=O)(C=Cc1ccc2no[n+]([O-])c2c1)c1ccc(Cl)cc1 [COV19499] | 1 (Compounds with IC50 < 10 µM or with a percentage of enzyme inhibition >50% at 10 µM were labelled as ACTIVE) |
| O=S(=O)(C=Cc1ccc2no[n+]([O-])c2c1)c1ccc(F)cc1 [COV19500] | 1 (Compounds with IC50 < 10 µM or with a percentage of enzyme inhibition >50% at 10 µM were labelled as ACTIVE) |
| [O-][n+]1onc2ccc(C=CSc3ccc(F)cc3)cc21 [COV19501] | 1 (Compounds with IC50 < 10 µM or with a percentage of enzyme inhibition >50% at 10 µM were labelled as ACTIVE) |
| Cc1ccc(S(=O)(=O)Nc2nc3cc(Cl)c(Oc4cccc(Cl)c4Cl)cc3[nH]2)cc1 [Cpd 31] | 0 (compounds with IC50 > 20 μM, percentage inhibition <80% at 20 µM or 50 μM, or percentage enzyme inhibition <50% at 10 µM were labelled as INACTIVE) |
| Nc1cccc(C(=O)Nc2nc3c(s2)CC(NC(=O)c2cc(Br)c(Br)[nH]2)CC3)c1 (stereo not shown) [Cpd 46] | 0 (compounds with IC50 > 20 μM, percentage inhibition <80% at 20 µM or 50 μM, or percentage enzyme inhibition <50% at 10 µM were labelled as INACTIVE) |
| O=C(Nc1nc2c(s1)CC(NC(=O)c1cc(Br)c(Br)[nH]1)CC2)c1c[nH]cn1 (stereo not shown) [Cpd 47] | 0 (compounds with IC50 > 20 μM, percentage inhibition <80% at 20 µM or 50 μM, or percentage enzyme inhibition <50% at 10 µM were labelled as INACTIVE) |
| Nc1nc2c(s1)CC(NC(=O)c1cc3cc(F)ccc3[nH]1)CC2 (stereo not shown) [Cpd 48] | 0 (compounds with IC50 > 20 μM, percentage inhibition <80% at 20 µM or 50 μM, or percentage enzyme inhibition <50% at 10 µM were labelled as INACTIVE) |
| NC1CCc2nc(NC(=O)c3cc(Cl)c(Cl)[nH]3)sc2C1 (stereo not shown) [Cpd 49] | 0 (compounds with IC50 > 20 μM, percentage inhibition <80% at 20 µM or 50 μM, or percentage enzyme inhibition <50% at 10 µM were labelled as INACTIVE) |
| CCOC(=O)C(=O)NC1CCc2nc(NC(=O)c3cc(Cl)c(Cl)[nH]3)sc2C1 (stereo not shown) [Cpd 50] | 0 (compounds with IC50 > 20 μM, percentage inhibition <80% at 20 µM or 50 μM, or percentage enzyme inhibition <50% at 10 µM were labelled as INACTIVE) |
| O=C(O)C(=O)NC1CCc2nc(NC(=O)c3cc(Cl)c(Cl)[nH]3)sc2C1 (stereo not shown) [Cpd 51] | 0 (compounds with IC50 > 20 μM, percentage inhibition <80% at 20 µM or 50 μM, or percentage enzyme inhibition <50% at 10 µM were labelled as INACTIVE) |
| COc1cccc(-n2c(NCCN3CCNCC3)nc3sc4c(c3c2=O)CCCC4)c1 [Cpd 52] | 0 (compounds with IC50 > 20 μM, percentage inhibition <80% at 20 µM or 50 μM, or percentage enzyme inhibition <50% at 10 µM were labelled as INACTIVE) |

| Structure (SMILES) | Class (MPro activity class) |
| --- | --- |
| COC(=O)CC(=O)Nc1nc2c(s1)CC(NC(=O)c1[nH]c(C)c(Cl)c1Cl)CC2 (stereo not shown) [Cpd 53] | 0 (compounds with IC50 > 20 μM, percentage inhibition <80% at 20 µM or 50 μM, or percentage enzyme inhibition <50% at 10 µM were labelled as INACTIVE) |
| Cc1[nH]c(C(=O)NC2CCc3nc(NC(=O)CC(=O)O)sc3C2)c(Cl)c1Cl (stereo not shown) [Cpd 54] | 0 (compounds with IC50 > 20 μM, percentage inhibition <80% at 20 µM or 50 μM, or percentage enzyme inhibition <50% at 10 µM were labelled as INACTIVE) |
| CCOC(=O)C(=O)Nc1nc2c(s1)CC(NC(=O)c1cc(Br)c(Br)[nH]1)CC2 (stereo not shown) [Cpd 55] | 0 (compounds with IC50 > 20 μM, percentage inhibition <80% at 20 µM or 50 μM, or percentage enzyme inhibition <50% at 10 µM were labelled as INACTIVE) |
| O=C(O)C(=O)Nc1nc2c(s1)CC(NC(=O)c1cc(Br)c(Br)[nH]1)CC2 (stereo not shown) [Cpd 56] | 0 (compounds with IC50 > 20 μM, percentage inhibition <80% at 20 µM or 50 μM, or percentage enzyme inhibition <50% at 10 µM were labelled as INACTIVE) |
| CCN(CC)c1ccc(-c2ccc(C(=O)OC)cc2)cc1 [Mal1] | 0 (compounds with IC50 > 20 μM, percentage inhibition <80% at 20 µM or 50 μM, or percentage enzyme inhibition <50% at 10 µM were labelled as INACTIVE) |
| COC(=O)c1ccc(-c2ccc(C3C(Oc4ccccc4)C(=O)N3Cc3ccccc3)cc2)cc1 (stereo not shown) [Mal2] | 0 (compounds with IC50 > 20 μM, percentage inhibition <80% at 20 µM or 50 μM, or percentage enzyme inhibition <50% at 10 µM were labelled as INACTIVE) |
| O=C1C(Oc2ccccc2)C(c2ccc(B(O)O)cc2)N1Cc1ccccc1 (stereo not shown) [Mal3] | 0 (compounds with IC50 > 20 μM, percentage inhibition <80% at 20 µM or 50 μM, or percentage enzyme inhibition <50% at 10 µM were labelled as INACTIVE) |
| CC(C)(C)OC(=O)N1CCC(Oc2cc(C(=O)NCC(=O)O)ccc2NC(=O)c2cc(Br)c(Br)[nH]2)CC1 [UL-DBT26] | 0 (compounds with IC50 > 20 μM, percentage inhibition <80% at 20 µM or 50 μM, or percentage enzyme inhibition <50% at 10 µM were labelled as INACTIVE) |
| Cc1[nH]c(C(=O)Nc2ccc(C(=O)O)cc2)c(Cl)c1Cl [UL-NNS 38-1] | 0 (compounds with IC50 > 20 μM, percentage inhibition <80% at 20 µM or 50 μM, or percentage enzyme inhibition <50% at 10 µM were labelled as INACTIVE) |
| Nc1ncc2cc(-c3c(F)cccc3F)c(N)nc2n1 [ZEA107] | 0 (compounds with IC50 > 20 μM, percentage inhibition <80% at 20 µM or 50 μM, or percentage enzyme inhibition <50% at 10 µM were labelled as INACTIVE) |
| Nc1ncc2cc(-c3ccc4c(c3)OCO4)c(N)nc2n1 [ZVR108] | 0 (compounds with IC50 > 20 μM, percentage inhibition <80% at 20 µM or 50 μM, or percentage enzyme inhibition <50% at 10 µM were labelled as INACTIVE) |
| Nc1nc2nc(NCCCN3CCOCC3)ncc2cc1-c1c(Cl)cccc1Cl [ZVR130] | 0 (compounds with IC50 > 20 μM, percentage inhibition <80% at 20 µM or 50 μM, or percentage enzyme inhibition <50% at 10 µM were labelled as INACTIVE) |
| COc1cc(OC)cc(-c2cc3cnc(N)nc3nc2N)c1 [ZVR-100] | 0 (compounds with IC50 > 20 μM, percentage inhibition <80% at 20 µM or 50 μM, or percentage enzyme inhibition <50% at 10 µM were labelled as INACTIVE) |
| Nc1ncc(C(=O)N(Cc2ccccc2)Cc2ccccc2)o1 [ZVR-102] | 0 (compounds with IC50 > 20 μM, percentage inhibition <80% at 20 µM or 50 μM, or percentage enzyme inhibition <50% at 10 µM were labelled as INACTIVE) |
| CCCCN(CCCC)C(=O)c1cnc(N)o1 [ZVR-103] | 0 (compounds with IC50 > 20 μM, percentage inhibition <80% at 20 µM or 50 μM, or percentage enzyme inhibition <50% at 10 µM were labelled as INACTIVE) |
| CCn1nc(C)cc1C(=O)N(Cc1ccccc1)Cc1ccccc1 [ZVR-117] | 0 (compounds with IC50 > 20 μM, percentage inhibition <80% at 20 µM or 50 μM, or percentage enzyme inhibition <50% at 10 µM were labelled as INACTIVE) |
| Cc1nc(N)sc1C(=O)N(Cc1ccccc1)Cc1ccccc1 [ZVR-119] | 0 (compounds with IC50 > 20 μM, percentage inhibition <80% at 20 µM or 50 μM, or percentage enzyme inhibition <50% at 10 µM were labelled as INACTIVE) |
| CCOC(=O)CN(C(=O)C1(C)CCc2c(C)c(O)c(C)c(C)c2O1)C(C(=O)NCCc1ccccc1)c1ccccc1 (stereo not shown) [vCOV194134] | 0 (compounds with IC50 > 20 μM, percentage inhibition <80% at 20 µM or 50 μM, or percentage enzyme inhibition <50% at 10 µM were labelled as INACTIVE) |
| CC(OC(C)(C)C)C1NC(=O)CN(C)C(=O)C(Cc2ccccc2)NC(=O)CN(C)C1=O (stereo not shown) [vCOV194214] (cyclo([Sar]F[Sar]T(tBu)); configuration not given here) | 0 (compounds with IC50 > 20 μM, percentage inhibition <80% at 20 µM or 50 μM, or percentage enzyme inhibition <50% at 10 µM were labelled as INACTIVE) |
| CN1CC(=O)NC(Cc2ccccc2)C(=O)N(C)CC(=O)NC(CSCc2ccccc2)C1=O (stereo not shown) [vCOV194219] (cyclo([Sar]C(Bn)[Sar]F); configuration not given here) | 0 (compounds with IC50 > 20 μM, percentage inhibition <80% at 20 µM or 50 μM, or percentage enzyme inhibition <50% at 10 µM were labelled as INACTIVE) |

Same assay, conditions: read-out: % activity MPro

| Structure (SMILES) | activity at 25 µM |
| --- | --- |
| O=C(O)C(=O)NC1CCc2nc(NC(=O)c3cc(Cl)c(Cl)[nH]3)sc2C1 (stereo not shown) [Cpd 51] | 107 ± 5.7% |
